Assays:
Format in all cases: physicochemical, human
[1] = LC/MS of blood plasma sample: time from blood collection to centrifugation (Table D); conditions: for Increase or decrease: detection intensity, after 12 hours vs 15 minutes; for Rate of increase or decrease (second value, decrease) / Rate of increase or decrease (first value, increase): different from individual to individual, relative to 1 at 15 minutes, collection to centrifugation; for Rate of increase or decrease (second value, decrease): individuals with decrease; for Rate of increase or decrease (first value, increase): individuals with increase
Protocol: (§1) At room temperature, 5 mL of blood from a healthy subject was taken into a blood-collecting vessel containing EDTA, and the blood-collecting vessel was inverted for mixing, then cooled, and allowed to stand at 4° C. Here, in order to investigate how the detection intensity of molecules contained in the sample was affected in a case where the time to cooling was set to 5 minutes or more as compared to that in a case where the time to cooling was set to 1 minute or less, preparations were performed under both the former condition and the latter condition. After standing, the blood sample was subjected to centrifugation under a condition of 4° C., 3000 rpm, and 15 minutes. […] After centrifugation, the blood-collecting vessel was left to stand at room temperature for 30 minutes, and the blood plasma was isolated during this 30 minutes. The obtained blood plasma sample was frozen and stored. Here, in order to investigate how the detection intensity of molecules contained in the sample was affected in cases where freezing and thawing was performed 4 times, 6 times, and 10 times after freezing as compared to that in a case where freezing and thawing was performed 2 times after freezing, freezing and thawing was performed under the respective conditions of 2, 4, 6, and 10 times.
(§2) Frozen blood plasma samples and serum samples were subjected to GC/MS or LC/MS. In GC/MS, the blood plasma samples and serum samples were subjected to methoxymation and trimethylsilylation and then introduced to GC-MS.
(§3) Analysis column: Discovery HS F5-3 (inner diameter of 2.1 mm, length of 150 mm, film thickness of 3 μm) (Sigma-Aldrich)
(§4) Column temperature: 40° C.
(§5) (A) 0.1% formic acid (dissolved in water)
(§6) (B) 0.1% formic acid (dissolved in acetonitrile)
(§7) Flow velocity: 0.25 mL/min
(§8) Ionization method: electrospray
(§9) Temperature: • Desolvation Line (DL) temperature: 250° C. • Heat block temperature: 400° C. • Interface temperature: 300° C.
(§10) Gas flow rate: • Nebulizer gas flow rate: 3.0 L/min • Drying gas flow rate: 10.0 L/min • Heating gas flow rate: 10.0 L/min
(§11) Mode: multiple reaction monitoring (MRM)
The rate of increase or decrease in Table D is the value of detection intensity relative to 1 that is the detection intensity in a case where the time from blood collection to centrifugation is set to 15 minutes.

[2] = LC/MS of blood plasma sample: number of times of freezing and thawing (Table F); conditions: for Rate of increase or decrease: detection intensity relative to 1 at 2 times; for Increase or decrease: detection intensity
Protocol: as §1, §2, §3, §4, §5, §6, §7, §8, §9, §10, §11
The rate of increase or decrease in Table F is the value of detection intensity relative to 1 that is the detection intensity in a case where the number of times of freezing and thawing is set to 2 times.

[3] = LC/MS of serum sample: number of times of freezing and thawing (Table M); parameters: key to Rate of increase or decrease: detection intensity relative to 1 at 2 freeze-thaw cycles; conditions: for Number of times when compound is affected / Increase or decrease: serum sample, LC/MS; for Number of times when compound is affected: detection intensity changed by 30% or more vs 2 times of freezing and thawing; for Increase or decrease: detection intensity vs 2 times of freezing and thawing
In short: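 Serum was isolated at room temperature after centrifugation at room temperature, 3500 rpm, 5 minutes, then frozen and freeze-thawed 2, 4, 6 or 10 times. LC/MS used a Discovery HS F5-3 column at 40° C with formic acid water/acetonitrile, electrospray MRM. Intensity is relative to 2 freeze-thaw cycles.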

[4] = blood collection to centrifugation
[5] = freezing and thawing 10 times vs 2 times
[6] = 6 times of freezing and thawing, detection intensity relative to 1 at 2 times
[7] = freezing and thawing 6 times vs 2 times
[8] = 4 times of freezing and thawing, detection intensity relative to 1 at 2 times

Structure (SMILES)	Increase or decrease [1, 4]	Rate of increase or decrease (second value, decrease) ([1]; after 12 hours)	Rate of increase or decrease (first value, increase) ([1]; after 12 hours)	Rate of increase or decrease ([2]; freezing and thawing 10 times)	Increase or decrease [2, 5]	Rate of increase or decrease ([3]; 6 times of freezing and thawing, relative to 1 at 2 times, different from individual to individual, second value (decrease))	Number of times when compound is affected [3] [times]	Increase or decrease [3]	Rate of increase or decrease ([1]; detection intensity relative to 1 at 15 minutes, blood collection to centrifugation, after 12 hours)	Rate of increase or decrease [3, 6]	Rate of increase or decrease ([2]; freezing and thawing 6 times)	Increase or decrease [2, 7]	Rate of increase or decrease ([2]; freezing and thawing 4 times)	Increase or decrease ([2]; freezing and thawing 4 times vs 2 times)	Rate of increase or decrease [3, 8]
C[C@H](N)C(=O)O [Alanine]	Different from individual	0.64	1.41	1.34	Increase	0.63	6	Different from individual	–	–	–	–	–	–	–
NC(=O)NCCC[C@H](N)C(=O)O [Citrulline]	Decrease	–	–	1.33	Increase	–	6	Decrease	0.68	0.62	–	–	–	–	–
CN=C(NC)NCCC[C@H](N)C(=O)O [Symmetric dimethylarginine]	Different from individual	0.68	1.78	1.31	Increase	–	6	Decrease	–	0.55	–	–	–	–	–
C[N+](C)(C)CC(O)CC(=O)[O-] (centres unmarked) [Carnitine]	Different from individual	0.64	1.57	–	–	–	6	Decrease	–	0.67	1.30	Increase	–	–	–
CN(CC(=O)O)C(=N)N [Creatine]	Different from individual	0.66	1.67	–	–	–	4	Decrease	–	–	–	–	1.39	Increase	0.63
Nc1ccccc1C(=O)CC(N)C(=O)O (centres unmarked) [Kynurenine]	Different from individual	0.66	1.85	–	–	–	4	Decrease	–	–	1.37	Increase	–	–	0.67
